Patent US10251902B2, “Pharmaceutical composition for treating or preventing neuropsychiatric disease, containing flavone-6-C-glucose derivatives as active ingredients” (priority 2013, dated 2019)

Legend:
[1] = test system: model of memory impairment induced by scopolamine; assay: Passive avoidance test in scopolamine-induced memory impairment model; assay type: in vivo, ICR mice; conditions: for Main Experiment / Passive Avoidance Learning: Table 2, scopolamine 1 mg/Kg i.p.; for Main Experiment: latency 24 h after learning, up to 300 seconds; for Passive Avoidance Learning: latency in learning trial; for latency time extended compared to that of the control 2: main experiment, control 2 = scopolamine
Procedure: An experiment was conducted to confirm effects of swertisin or isoorientin, and extracts of Swertia pseudochinensis or Swertia japonica containing the same prepared in Examples 1 to 3 in treating dementia by using a model of memory impairment induced by scopolamine. Detailed method follows.
(§1) Six-week old ICR mice in about 26 g to 28 g (Orientbio Inc, Republic of Korea) were received water and feed without constraint and adapted for 5 days under an environment having about 23±1° C. of temperature, about 60±10% of humidity and 12-hour light/dark cycle (animal laboratory at College of Pharmacy, Kyung-Hee University), and then used for the experiment.
An apparatus for measuring passive avoidance reaction was prepared. The apparatus has 2 separated chambers (the first and second chambers) and there is a guillotine-shaped passage that connects the first chamber and the second chamber. The first chamber was maintained brightly by using a light, and the second chamber was maintained darkly. A grid was installed on the floor of the second chamber. The grid generates 0.5 mA of electric shock for 3 seconds when the laboratory animal moved into the dark chamber.
About 30 minutes later, 1 mg/Kg of scopolamine, which was dissolved in distilled water, was intraperitoneally administered to the drug administration groups 1 to 4 and controls 1 and 2 (Ebert, U. et al., Eur. J. Clin. Invest., 28, pp 944-949, 1998), and 0.9% of saline solution was intraperitoneally administered to the control 3. After 30 minutes, passive avoidance learning was conducted on the drug administration groups 1-4 and controls 1-3. In detail, the mice were located in the first chamber (i.e. bright space) and the passage was open after about 20 seconds of observation time, and then latency time of the mice moving to the second chamber (i.e. dark space) was measured.
Twenty-four hours after the passive avoidance learning, a main experiment was conducted on the drug administration groups 1-4 and controls 1-3. Latency time of the mice of each group moving their 4 legs into the dark space after 10 seconds of observation time from opening of the guillotine-shaped passage was measured up to 300 seconds. It means that the passive avoidance learning and memory are better if the latency time is longer.
(§2) The passive avoidance test was conducted on the drug administration groups 1-4 and controls 1-3 in the same manner as the method explained above except that swertisin, which is one of the flavone-6-C-β-D-glucose derivatives prepared in Example 3, was dissolved in 10% Tween 80 and administered to the drug administration groups 1-4 in amounts of 1.25 mg/kg, 2.5 mg/kg, 5 mg/kg and 10 mg/kg respectively.
as §2, with “Experimental Example 1-1” for “the method explained above”, “isoorientin,” for “swertisin,”
(§3) The passive avoidance test was conducted on the drug administration groups 1-3 and controls 1-3 in the same manner as Experimental Example 1-1 except that a 70% ethanol extract of Swertia japonica prepared in Example 1, was dissolved in 10% Tween and administered to the drug administration groups 1-3 in amounts of 100 mg/kg, 200 mg/kg and 400 mg/kg respectively.
as §3, with “pseudochinensis” for “japonica”, “2,” for “1,”, “Tween 80” for “Tween”

[2] = test system: anxiety symptoms in a normal status; assay: Marble burying test; assay type: in vivo, ICR mice; conditions: swertisin 10 mg/kg
Procedure: as §1
As a method of measuring alleviation of anxiety symptoms in a normal status, the marble burying test was conducted based on the nature of mice that they dig when feel anxiety. Inside of a cage in size of 40 cm s 27 cm s 18 cm was covered with straw to the height of 4 cm, and 25 marbles having same pattern were arranged at intervals of 3 cm. Two groups (10 mice per each group) were prepared as the drug administration group 1, wherein swertisin, which is one of the flavone-6-C-β-D-glucose derivatives prepared in Example 3, was administered, and the control 1. […]
After 60 minutes of administration, mice of the drug administration group 1 and the control 1 were carefully located in the cage having the marbles and the mice were allowed to move freely for 30 minutes. After 30 minutes, the number of buried marbles under straw was counted. […] The more the number of buried marbles, it was assessed that the laboratory animal feels anxiety severer (Broekkamp, C L. et al., Eur J Pharmacol., 126, pp 223-229, 1986).

Structure (SMILES): COc1cc2oc(-c3ccc(O)cc3)cc(=O)c2c(O)c1[C@@H]1O[C@H](CO)[C@@H](O)[C@H](O)[C@H]1O [swertisin]
- Main Experiment ([1]; swertisin 1.25 mg/kg): 67.13 ± 26.08 s
- Passive Avoidance Learning ([1]; swertisin 1.25 mg/kg): 30.20 ± 14.53 s
- Main Experiment ([1]; swertisin 2.5 mg/kg): 82.11 ± 35.20 s
- Passive Avoidance Learning ([1]; swertisin 2.5 mg/kg): 19.10 ± 10.37 s
- Main Experiment ([1]; swertisin 5 mg/kg): 117.3 ± 44.16 s
- Passive Avoidance Learning ([1]; swertisin 5 mg/kg): 20.40 ± 10.11 s
- Main Experiment ([1]; swertisin 10 mg/kg): 117.7 ± 52.28 s
- Passive Avoidance Learning ([1]; swertisin 10 mg/kg): 29.70 ± 18.76 s
- latency time extended compared to that of the control 2 ([1]; swertisin 1.25 mg/Kg): about 2 fold
- latency time extended compared to that of the control 2 ([1]; swertisin 2.5 mg/Kg): about 2.5 fold
- latency time extended compared to that of the control 2 ([1]; swertisin 5 mg/Kg): about 3 fold
- latency time extended compared to that of the control 2 ([1]; swertisin 10 mg/Kg): about 3 fold
- number of the buried marbles compared to that of the control 1, in words [2]: decreased
- Number of Buried Marbles ([2]; 60 minutes after administration, 30 minutes in cage, 25 marbles): 21.78 ± 1.856
